Laboratory results: ChEMBL document CHEMBL3507680, “University of Dundee, Gates Library screen for HepG2 cell viability”

assay: Human HepG2 cell viability assay in 384 well format; assay type: toxicity, cell-based; set-up: dose 125 nL, time 70.5 hour; concentration not given beside the values; conditions: HepG2 cells, read-out: Inhibition

Q: For `CN1CCC(n2nc(Cc3cccc(Cl)c3)nc2Cn2cnnn2)CC1`, which cytotoxicity at 70.5 h is on record?
A: 27.5%

Q: Which cytotoxicity at 70.5 h does the source give for `CNc1ncc(CN(C)C(=O)CCc2cc3n(n2)CCCNC3)cn1` here?
A: -9.14%

Q: Which cytotoxicity at 70.5 h does the source give for `Cc1cnccc1N1CCN(C(=O)C2CC3(CCNCC3)CN2)CC1` (stereo not drawn) here?
A: -5.99%

Q: For `OCC1(O)CCCN(Cc2ccccc2OCCc2ccccc2)CC1` (stereo not drawn), which cytotoxicity at 70.5 h is on record?
A: -5.14%

Q: Which cytotoxicity at 70.5 h does the source give for `CN(C)C[C@@H]1[C@H]2CN(C(=O)c3cc(=O)[nH]c4ccc(F)cc34)C[C@@H]12` here?
A: 22.8%

Q: With `CN(CCc1ccccc1)C(=O)c1cc(CN2CCC(O)CC2)on1` as the molecule, how does the cytotoxicity at 70.5 h read?
A: -5.34%

Q: Which cytotoxicity at 70.5 h does the source give for `COCCN(C)CCN1CC2(CCN(C3CCSC3)CC2)OC1=O` (stereo not drawn) here?
A: -4.49%

Q: For `O=C(O)C1CN(Cc2cccc(-c3ccccn3)c2)CCO1` (stereo not drawn), which cytotoxicity at 70.5 h is on record?
A: -9.06%

Q: Which cytotoxicity at 70.5 h does the source give for `CC1(C)CNC(=O)c2nc(-c3n[nH]c(=O)[nH]3)[nH]c2C1` here?
A: -5.75%

Q: For `CCN(CC)C(=O)[C@@H]1C[C@@H](N)CN1C(=O)c1cc2c([nH]c1=O)CCC2`, which cytotoxicity at 70.5 h is on record?
A: -10.8%

Q: With `Cc1nnsc1C(=O)N(C)Cc1nc(-c2ccccn2)no1` as the molecule, how does the cytotoxicity at 70.5 h read?
A: -2.75%

Q: For `Cn1ncc2c(N3CCS(=O)(=O)CC3)nc(-c3cccnc3)nc21`, which cytotoxicity at 70.5 h is on record?
A: 6.33%

Q: For `Cc1cccc(NC(=O)N2CCOCC(CN(C)C)C2)c1C` (stereo not drawn), which cytotoxicity at 70.5 h is on record?
A: -6.8%

Q: With `CN[C@@H](C)C(=O)N(Cc1cccc(C)c1)Cc1ccccc1OC` as the molecule, how does the cytotoxicity at 70.5 h read?
A: 14.5%

Q: Which cytotoxicity at 70.5 h does the source give for `COCCN(Cc1cccnc1)c1nc(C)nc2oc(C)nc12` here?
A: -5.28%

Q: Which cytotoxicity at 70.5 h does the source give for `C[C@@H]1CN(C(=O)c2nc3ccc(Cl)cn3c2-c2ncc[nH]2)C[C@H](C)O1` here?
A: -14.7%

Q: Which cytotoxicity at 70.5 h does the source give for `CCN(CC)C(=O)c1ccc(Cl)c(NC(=O)c2cc[nH]n2)c1` here?
A: 13.3%

Q: Which cytotoxicity at 70.5 h does the source give for `CCC[C@@H]1CN(S(=O)(=O)c2ccc(OC)c(OC)c2)C[C@H]1NC(C)=O` here?
A: 6.19%

Q: For `COCC[C@]1(O)CCN(C(=O)CCc2cnn(C)c2)C[C@H]1C`, which cytotoxicity at 70.5 h is on record?
A: -7.34%

Q: For `Cc1ccc(-c2cn[nH]c2C2CCCN(c3ncccn3)C2)cc1` (stereo not drawn), which cytotoxicity at 70.5 h is on record?
A: 22.7%

Q: Which cytotoxicity at 70.5 h does the source give for `Cc1cc(CN(C)C(C(=O)O)c2cccc(C(F)(F)F)c2)on1` (stereo not drawn) here?
A: -7.95%

Q: Which cytotoxicity at 70.5 h does the source give for `COc1ccc2[nH]c3c(c2c1)CN(c1cc(NCCO)nc(N)n1)CC3` here?
A: -3.57%

Q: Which cytotoxicity at 70.5 h does the source give for `O=C(Nc1ccc(-c2ccccc2)cc1)N1C[C@@H]2CNC[C@]2(C(=O)O)C1` here?
A: -9.81%

Q: For `Cc1nc(CC(=O)N2CCCC2c2nc(-c3ccccc3)no2)cs1` (stereo not drawn), which cytotoxicity at 70.5 h is on record?
A: -3.06%

Q: Which cytotoxicity at 70.5 h does the source give for `CCCNCc1ccc(-c2ccnc3[nH]ccc23)cc1` here?
A: 29.1%

Q: With `CN(Cc1ccccc1-n1cccn1)C[C@@H]1CCCN2CCCC[C@H]12` as the molecule, how does the cytotoxicity at 70.5 h read?
A: -8.12%

Q: With `CCCc1nccn1-c1ccncc1` as the molecule, how does the cytotoxicity at 70.5 h read?
A: -5.45%

Q: For `Cc1nn(C)c(C)c1CCC(=O)N1CCN(CCn2cncn2)CC1`, which cytotoxicity at 70.5 h is on record?
A: 14.9%

Q: With `Cc1ccc(CCNC(=O)Cn2nc(C)n(Cc3ccccc3)c2=O)o1` as the molecule, how does the cytotoxicity at 70.5 h read?
A: 19.8%

Q: With `CC(CNC(=O)c1cc(Cn2cnc3ccccc32)[nH]n1)N1CCCC1` (stereo not drawn) as the molecule, how does the cytotoxicity at 70.5 h read?
A: -7.82%

Q: Which cytotoxicity at 70.5 h does the source give for `Cc1c[nH]c(CN2CCC3(CCCN(Cc4ccc(F)c(F)c4)C3)C2)n1` (stereo not drawn) here?
A: 0.269%

Q: With `CC(C)S(=O)(=O)N1CCOC(CCc2ccccc2)C1` (stereo not drawn) as the molecule, how does the cytotoxicity at 70.5 h read?
A: -8.39%

Q: Which cytotoxicity at 70.5 h does the source give for `CCCn1ccnc1CN1CCCC(O)(CN2CCCC2)C1` (stereo not drawn) here?
A: -2.63%

Q: Which cytotoxicity at 70.5 h does the source give for `CC(C)C1CN(c2cnccn2)CCC(=O)N1Cc1ccc(F)cc1` (stereo not drawn) here?
A: -0.619%

Q: For `Cc1cccc(=O)n1CCC(=O)N1CC[C@](C)(O)[C@H](C)C1`, which cytotoxicity at 70.5 h is on record?
A: -9.5%

Q: With `Cc1ccc(F)cc1-n1c(COC(C)C)n[nH]c1=O` as the molecule, how does the cytotoxicity at 70.5 h read?
A: -5.58%

Q: For `CC(C)Cc1cc(C(=O)N2CCC(Oc3cccnc3)CC2)n(C)n1`, which cytotoxicity at 70.5 h is on record?
A: -8.18%

Q: Which cytotoxicity at 70.5 h does the source give for `CNS(=O)(=O)c1ccc(CN2CCCC2c2ccc(F)cc2)cc1` (stereo not drawn) here?
A: -5.9%

Q: For `Cc1ccc2[nH]c(CN(C)c3cc(CN)nc(C)n3)nc2c1`, which cytotoxicity at 70.5 h is on record?
A: 0.934%

Q: For `CCc1nnc(CN(C)Cc2cccc(C(=O)Nc3ccnn3C)c2)o1`, which cytotoxicity at 70.5 h is on record?
A: 1.53%

Q: Which cytotoxicity at 70.5 h does the source give for `CN1CCC(O)(CNC(=O)c2cc(COc3cccc(F)c3)[nH]n2)CC1` here?
A: -6.87%

Q: With `Cc1nc(N)ncc1C(=O)N1CCCC(CCc2ccccc2F)C1` (stereo not drawn) as the molecule, how does the cytotoxicity at 70.5 h read?
A: 17%

Q: With `O=C(C1CCCCO1)N1CCc2ncnc(NCCO)c2CC1` (stereo not drawn) as the molecule, how does the cytotoxicity at 70.5 h read?
A: -2.71%
